Data as given in patent publication US20140106390A1, “BIOMARKERS FOR THE TREATMENT OF MULTIPLE MYELOMA” (CELGENE CORPORATION, priority 2011, published 2014).

What was measured:
[1] = compared with the racemic mixture; cited from earlier work
serum M-protein = assay: Tumor growth inhibition (TGI) model for pomalidomide single agent fitted to serum M-protein data, Phase I/II pomalidomide study; assay type: in vivo, patients; conditions: population estimate
Protocol: The Phase I segment investigates whether pomalidomide single agent dose could be escalated up to 5 mg daily using the cyclic schedule. The Phase II segment has progression free survival (PFS) as the primary endpoint and an interim analysis is planned at 50% of the events.
A semi-mechanistic exposure-driven tumor growth inhibition (TGI) model was used to model serum M-protein data (taken as a marker of tumor size) as function of time and drug dose levels. The TGI model is described by the following differential equation system: […]
where y(t) is the at time t with y0 value at baseline (g/L),
KL, is the rate of M-protein level increase (tumor growth rate) (week^−1),
KD, is the rate of drug-induced M-protein decrease (drug potency, mg^−1.week^−1)
KD decreases with time (from KD,0 at time 0, full effect) with the rate constant λ, (week^−1)
D (t) is the amount of drug at the site of action (mg) (“KPD model”) (see Jacqim et al., J. Pharmacokinet. Pharmacodyn. (2007), 31: 57-85),
Kp is the elimination rate constant from the virtual biophase compartment (week^−1).
Model parameters were estimated by maximum likelihood in non-linear mixed effect model using NONMEM VI level 1.0 FOCE method with interaction (Beal et al., NONMEM user's guide. (1992) San Francisco: University of California at San Francisco NONMEM Project Group). […]

[2] = Phase Ib ascending dose study of pomalidomide (MTD); assay type: in vivo; conditions: 45 relapsed and refractory multiple myeloma patients
Protocol: M-protein measurements entered from data with pomalidomide in relapsed and refractory multiple myeloma patients consists of one completed and two ongoing studies. In a Phase Ib ascending dose study in 45 patients, the MTD of pomalidomide was 2 mg administered daily or 5 mg administered on an every other day schedule. These subjects tolerated alternate day dosing better than daily dosing based on dose-limiting toxicity (DLT), however, the AE profiles were similar for both dosing regimens.

Row | SMILES | potency [1] | λ, rate constant of decrease of KD with time (resistance appearance), estimate (serum M-protein) | KL, rate of M-protein level increase (tumor growth rate), estimate (serum M-protein; 37 patients) | MTD ([2]; administered daily) | MTD ([2]; administered on an every other day schedule)
1 | Nc1cccc2c1C(=O)N([C@H]1CCC(=O)NC1=O)C2=O [(S)-isomer of 4-(amino)-2-(2,6-dioxo(3-piperidyl))-isoindoline-1,3-dione, (S)-4-(amino)-2-(2,6-dioxo(3-piperidyl))-isoindoline-1,3-dione] | higher potency than the racemic mixture | – | – | – | –
2 | Nc1cccc2c1C(=O)N(C1CCC(=O)NC1=O)C2=O (centres unmarked) [pomalidomide, 4-amino-2-(2,6-dioxopiperidin-3-yl)isoindole-1,3-dione] | – | 0.128 wk^−1 | 0.036 wk^−1 | 2 mg | 5 mg
